The test system of data set [1] is purified invented protein (active fragment (C)). Kind of data set: Substrate specificity: reduction activity of the invented protein on carbonyl compounds (NADPH absorbance decrease at 340 nm). The format is biochemical, Stenotrophomonas sp. SC-1 strain.
The nature of data set [2]: Optimal pH of the reduction activity on ethyl benzoylformate. In kind it is biochemical. The following applies: ethyl benzoylformate 10 mM, NADPH 0.5 mM, pH 5.5 to 10, 30° C., 1 minute, 340 nm.
[3] abbreviates: substrate 1 mM, NADPH 0.5 mM, 100 mM phosphate buffer pH 7, 30° C., 5 minutes, relative value, activity on ethyl benzoylformate = 100%.

Regarding `O=C(O)CCC(=O)c1ccccc1` [3-Benzoylpropionic acid], in data set [1] (setting [3]), the “Relative activity (%)” value came to 3.3%.

On to `CCOC(=O)C(=O)c1ccccc1` [Eethyl benzoylformate, ethyl benzoylformate], for which the “Relative activity (%)” value in data set [1] (setting [3]) came out at 100%. In the case of `CCOC(=O)CC(=O)CCl` [Ethyl 4-chloro-3-oxobutyrate], the “Relative activity (%)” value in data set [1] (pH 7) is reported as 0.5%. On to `CCOC(=O)C(=O)CCc1ccccc1` [Ethyl 4-phenyl2-oxobutyrate], for which, in data set [1] (setting [3]), the “Relative activity (%)” value worked out at 1.5%. The same measure, in the same setting: with `CCOC(=O)C(C)=O` [Ethyl pyruvate] the figure was 33.7%; with `COC(=O)CC(=O)CBr` [Methyl 4-bromo-3-oxobutyrate], 3.9%. As to `CCC=O` [Propionaldehyde], the “Relative activity (%)” value in data set [1] (setting [3]) is 8.6%.

B1: invented protein (active fragment (C)): purified reductase (SEQ ID NO:1) of Stenotrophomonas sp. SC-1, expressed in E. coli HB101 with plasmid pTrcRs (protein, listed as Stenotrophomonas sp.)
chain: MTATRELGRSGLHVAPIAFGGNVFGWSADEKTSFALLDAFVEAGFNLVDTADVYSAWVPGNQGGESETILGRWFKHSGKRDKVVLATKVAKWSEHPGLSADNITAAVEDSLRRLQTDVIDLYQAHEDDESTPLESTLAAFGRLIEQGKVRAIGASNYSAERLSDALKVSADYKLPRYETLQPEYNLYDRAGYEAGLEAVVRDAQLGVISYYSLASGFLSGKYRSAADAGKSSARGQSVVDKYVNPRGLRILGALDDVASTHGVSPSQIAIAWLIARPGITAPIVSATSVEQLNDVLAAAKVALSAQEVQQLDAASAEQA
For B1, in data set [2], the “optimal pH” value is 7.0.
